Our source for the Kinact/Kl values is US20250230165A1, “HETEROCYCLIC COMPOUNDS FOR USE IN THE TREATMENT OF CANCER” (ARTIOS PHARMA LIMITED, priority 2021, published 2025).

The assay addresses T1, Human Polθ polymerase domain (aa1820-2590) (Homo sapiens, UniProt O75417).
T1 construct: Human Polθ polymerase domain (aa1820-2590) was expressed in E. coli; made in house; host or cells: E. coli
T1 sequence (O75417 1820-2590): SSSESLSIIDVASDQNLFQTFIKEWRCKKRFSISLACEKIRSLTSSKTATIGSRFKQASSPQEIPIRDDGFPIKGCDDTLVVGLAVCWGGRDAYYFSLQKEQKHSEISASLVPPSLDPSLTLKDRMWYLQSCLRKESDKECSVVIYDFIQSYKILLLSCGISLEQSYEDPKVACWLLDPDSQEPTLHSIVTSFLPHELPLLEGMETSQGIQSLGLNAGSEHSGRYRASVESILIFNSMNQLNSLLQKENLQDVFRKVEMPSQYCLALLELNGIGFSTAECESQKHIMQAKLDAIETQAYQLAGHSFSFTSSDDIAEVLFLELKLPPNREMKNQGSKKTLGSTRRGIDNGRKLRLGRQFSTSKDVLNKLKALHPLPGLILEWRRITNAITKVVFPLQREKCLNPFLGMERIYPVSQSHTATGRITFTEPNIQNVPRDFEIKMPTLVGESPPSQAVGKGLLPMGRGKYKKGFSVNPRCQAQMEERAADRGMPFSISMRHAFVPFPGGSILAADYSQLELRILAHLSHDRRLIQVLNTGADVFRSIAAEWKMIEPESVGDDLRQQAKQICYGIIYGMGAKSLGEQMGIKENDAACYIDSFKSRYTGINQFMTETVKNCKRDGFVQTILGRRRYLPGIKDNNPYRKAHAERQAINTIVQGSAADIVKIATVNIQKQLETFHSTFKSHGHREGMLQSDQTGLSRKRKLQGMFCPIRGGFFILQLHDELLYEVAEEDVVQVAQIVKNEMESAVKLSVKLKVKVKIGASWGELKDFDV
Kind of assay: Polθ Polymerase Domain Kinact/KI Assay (PicoGreen). It is filed as biochemical. As to conditions: 0.8 nM Polθ, 100 nM DNA substrate, kobs vs [I] fit for 2-step covalent inhibitor. The method, boiled down:
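Time-dependent inhibition was followed by quenching reactions with EDTA at points up to 60 min, then staining product DNA with PicoGreen fluorescence. Reactions held 0.8 nM E. coli-expressed Polθ, 100 nM primed DNA substrate and […] at pH 7.5, 1% DMSO. kobs versus inhibitor concentration gave Kinact and KI.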
In the case of `C=CC(=O)N1CC(c2nc(CN3C[C@H]4CC(=O)N(c5cc(C(F)(F)F)cc(C)n5)[C@@H]4C(=O)N(C)c4cccc(F)c43)n(C)n2)C1` [Example 99, (3aR,11aS)-5-((3-(1-acryloylazetidin-3-yl)-1-methyl-1H-1,2,4-triazol-5-yl)methyl)-6-fluoro-10-methyl-1-(6-methyl-4-(trifluoromethyl)pyridin-2-yl)-1,3a,4,5,10,11a-hexahydro-2H-benzo[b]pyrrolo[2,3-f][1,4]diazocine-2,11(3H)-dione], the Kinact/Kl was found to be 170000 M⁻¹ s⁻¹. Consider `C=CC(=O)N1CC(c2nc(CN3C[C@H]4CC(=O)N(c5cc(C(F)(F)F)cc(C)n5)[C@@H]4C(=O)N(C)c4cccc(F)c43)nn2C)C1` [Example 100, (3aR,11aS)-5-((5-(1-acryloylazetidin-3-yl)-1-methyl-1H-1,2,4-triazol-3-yl)methyl)-6-fluoro-10-methyl-1-(6-methyl-4-(trifluoromethyl)pyridin-2-yl)-1,3a,4,5,10,11a-hexahydro-2H-benzo[b]pyrrolo[2,3-f][1,4]diazocine-2,11(3H)-dione], for which the Kinact/Kl was 100000 M⁻¹ s⁻¹. `C=CC(=O)N1CC(c2nc(CN3C[C@H]4CC(=O)N(c5cc(C(F)(F)F)cc(C)n5)[C@@H]4C(=O)N(C)c4cccc(F)c43)no2)C1` [Example 101, (3aR,11aS)-5-((5-(1-acryloylazetidin-3-yl)-1,2,4-oxadiazol-3-yl)methyl)-6-fluoro-10-methyl-1-(6-methyl-4-(trifluoromethyl)pyridin-2-yl)-1,3a,4,5,10,11a-hexahydro-2H-benzo[b]pyrrolo[2,3-f][1,4]diazocine-2,11(3H)-dione] returned a Kinact/Kl of 1.47e+06 M⁻¹ s⁻¹. As for `C=CC(=O)N1CC(c2noc(CN3C[C@H]4CC(=O)N(c5cc(C(F)(F)F)cc(C)n5)[C@@H]4C(=O)N(C)c4cccc(F)c43)n2)C1` [Example 102, (3aR,11aS)-5-((3-(1-acryloylazetidin-3-yl)-1,2,4-oxadiazol-5-yl)methyl)-6-fluoro-10-methyl-1-(6-methyl-4-(trifluoromethyl)pyridin-2-yl)-1,3a,4,5,10,11a-hexahydro-2H-benzo[b]pyrrolo[2,3-f][1,4]diazocine-2,11(3H)-dione], the Kinact/Kl is 1.16e+06 M⁻¹ s⁻¹. To `C=CC(=O)N1CC(c2nnc(CN3C[C@H]4CC(=O)N(c5cc(C(F)(F)F)cc(C)n5)[C@@H]4C(=O)N(C)c4cccc(F)c43)o2)C1` [Example 103, (3aR,11aS)-5-((5-(1-acryloylazetidin-3-yl)-1,3,4-oxadiazol-2-yl)methyl)-6-fluoro-10-methyl-1-(6-methyl-4-(trifluoromethyl)pyridin-2-yl)-1,3a,4,5,10,11a-hexahydro-2H-benzo[b]pyrrolo[2,3-f][1,4]diazocine-2,11(3H)-dione] belongs 1.6e+06 M⁻¹ s⁻¹; to `C=CC(=O)N1CC2(CN(CCN3C[C@H]4CC(=O)N(c5cc(C(F)(F)F)cc(C)n5)[C@@H]4C(=O)N(C)c4cccc(F)c43)CC(=O)N2)C1` [Example 104, (3aR,11aS)-5-(2-(2-acryloyl-6-oxo-2,5,8-triazaspiro[3.5]nonan-8-yl)ethyl)-6-fluoro-10-methyl-1-(6-methyl-4-(trifluoromethyl)pyridin-2-yl)-1,3a,4,5,10,11a-hexahydro-2H-benzo[b]pyrrolo[2,3-f][1,4]diazocine-2,11(3H)-dione], 1.86e+06 M⁻¹ s⁻¹; to `C=CC(=O)N1CC2(CN(CCN3C[C@H]4CC(=O)N(c5cc(C(F)(F)F)cc(C)n5)[C@@H]4C(=O)N(C)c4cccc(F)c43)Cc3nccn32)C1` [Example 105, (3aR,11aS)-5-(2-(1-acryloyl-6′H-spiro[azetidine-3,5′-imidazo[1,2-a]pyrazin]-7′(8′H)-yl)ethyl)-6-fluoro-10-methyl-1-(6-methyl-4-(trifluoromethyl)pyridin-2-yl)-1,3a,4,5,10,11a-hexahydro-2H-benzo[b]pyrrolo[2,3-f][1,4]diazocine-2,11(3H)-dione], 1.04e+06 M⁻¹ s⁻¹.

`C=CC(=O)N1CC2(C1)CN(C(=O)CN1C[C@H]3CC(=O)N(c4cc(C(F)(F)F)cc(C)n4)[C@@H]3C(=O)N(C)c3cccc(F)c31)c1nccn12` [Example 106, (3aR,11aS)-5-(2-(1-acryloylspiro[azetidine-3,3′-imidazo[1,2-a]imidazo]-1′(2′H)-yl)ethyl)-6-fluoro-10-methyl-1-(6-methyl-4-(trifluoromethyl)pyridin-2-yl)-1,3a,4,5,10,11a-hexahydro-2H-benzo[b]pyrrolo[2,3-f][1,4]diazocine-2,11(3H)-dione]: the Kinact/Kl turned out to be 1.14e+06 M⁻¹ s⁻¹.

For the compound `C=CC(=O)N1CC2(CN(CCN3C[C@H]4CC(=O)N(c5cc(C(F)(F)F)cc(C)n5)[C@@H]4C(=O)N(C)c4cccc(Cl)c43)CC(=O)N2C)C1` [Example 111, (3aR,11aS)-5-(2-(2-acryloyl-5-methyl-6-oxo-2,5,8-triazaspiro[3.5]nonan-8-yl)ethyl)-6-chloro-10-methyl-1-(6-methyl-4-(trifluoromethyl)pyridin-2-yl)-1,3a,4,5,10,11a-hexahydro-2H-benzo[b]pyrrolo[2,3-f][1,4]diazocine-2,11(3H)-dione], the Kinact/Kl came to 2.49e+06 M⁻¹ s⁻¹. On to `C=CC(=O)N1CC(N2CCN(CCN3C[C@H]4CC(=O)N(c5cc(C(F)(F)F)cc(C)n5)[C@@H]4C(=O)N(C)c4cccc(Cl)c43)CC2=O)C1` [Example 112, (3aR,11aS)-5-(2-(4-(1-acryloylazetidin-3-yl)-3-oxopiperazin-1-yl)ethyl)-6-chloro-10-methyl-1-(6-methyl-4-(trifluoromethyl)pyridin-2-yl)-1,3a,4,5,10,11a-hexahydro-2H-benzo[b]pyrrolo[2,3-f][1,4]diazocine-2,11(3H)-dione], for which the Kinact/Kl is 920000 M⁻¹ s⁻¹.

Regarding `C=CC(=O)N1CC2(CN(CCN3C[C@H]4CC(=O)N(c5cc(C(F)(F)F)cc(C)n5)[C@@H]4C(=O)N(C)c4cccc(C)c43)CCN2)C1` [Example 114, (3aR,11aS)-5-(2-(2-acryloyl-2,5,8-triazaspiro[3.5]nonan-8-yl)ethyl)-6,10-dimethyl-1-(6-methyl-4-(trifluoromethyl)pyridin-2-yl)-1,3a,4,5,10,11a-hexahydro-2H-benzo[b]pyrrolo[2,3-f][1,4]diazocine-2,11(3H)-dione], the Kinact/Kl worked out at 580000 M⁻¹ s⁻¹. Compound `C=CC(=O)N1CC(N2CCN(CCN3C[C@H]4CC(=O)N(c5cc(C(F)(F)F)cc(C)n5)[C@@H]4C(=O)N(C)c4cccc(C)c43)CC2)C1` [Example 115, (3aR,11aS)-5-(2-(4-(1-acryloylazetidin-3-yl)piperazin-1-yl)ethyl)-6,10-dimethyl-1-(6-methyl-4-(trifluoromethyl)pyridin-2-yl)-1,3a,4,5,10,11a-hexahydro-2H-benzo[b]pyrrolo[2,3-f][1,4]diazocine-2,11(3H)-dione] showed a Kinact/Kl of 2.35e+06 M⁻¹ s⁻¹. To `C=CC(=O)N1CC(n2ccc(CN3C[C@H]4CC(=O)N(c5cc(C(F)(F)F)cc(C)n5)[C@@H]4C(=O)N(C)c4cccc(F)c43)n2)C1` [Example 120, (3aR,11aS)-5-((1-(1-acryloylazetidin-3-yl)-1H-pyrazol-3-yl)methyl)-6-fluoro-10-methyl-1-(6-methyl-4-(trifluoromethyl)pyridin-2-yl)-1,3a,4,5,10,11a-hexahydro-2H-benzo[b]pyrrolo[2,3-f][1,4]diazocine-2,11(3H)-dione] belongs 890000 M⁻¹ s⁻¹. Consider `C=CC(=O)N1CC(n2cc(CN3C[C@H]4CC(=O)N(c5cc(C(F)(F)F)cc(C)n5)[C@@H]4C(=O)N(C)c4cccc(F)c43)cn2)C1` [Example 121, (3aR,11aS)-5-((1-(1-acryloylazetidin-3-yl)-1H-pyrazol-4-yl)methyl)-6-fluoro-10-methyl-1-(6-methyl-4-(trifluoromethyl)pyridin-2-yl)-1,3a,4,5,10,11a-hexahydro-2H-benzo[b]pyrrolo[2,3-f][1,4]diazocine-2,11(3H)-dione], for which the Kinact/Kl was 540000 M⁻¹ s⁻¹. To `C=CC(=O)N1CC(c2nc(CN3C[C@H]4CC(=O)N(c5cc(C(F)(F)F)cc(C)n5)[C@@H]4C(=O)N(C)c4cccc(F)c43)c[nH]2)C1` [Example 122, (3aR,11aS)-5-((2-(1-acryloylazetidin-3-yl)-1H-imidazol-4-yl)methyl)-6-fluoro-10-methyl-1-(6-methyl-4-(trifluoromethyl)pyridin-2-yl)-1,3a,4,5,10,11a-hexahydro-2H-benzo[b]pyrrolo[2,3-f][1,4]diazocine-2,11(3H)-dione] belongs 610000 M⁻¹ s⁻¹.
